Assay: Reactive nitrogen species (RNS) after oral dosing of fasted rats, diaminonapthalene derivitization (DAN) assay
Format: in vivo, Sprague-Dawley (SD) rats
Details: fasted SD rats, 40 mpk PO
Description: The dinitrate compounds of the invention provide enhanced NO release over mononitrate analogs. While mononitrate compounds orally dosed to rats result in reactive nitrite species circulating in plasma with maximal concentration in the 0.5-2.8 μM range, similar dosing of compounds of the present invention result in an unexpectedly large increase in circulating nitrite concentrations. A consideration of stoichiometry leads to an expectation of a doubling of nitrite levels. Compounds of the invention, however, provide a nitrite level increase more than two fold.
Biochemical evidence for the generation of NO in vivo in response to test compound administration was obtained from studies in Sprague-Dawley (SD) rats. Administration of test compound to fasted SD rats (40 mpk, PO) results in the appearance of reactive nitrogen species (RNS), assessed using the diaminonapthalene derivitization (DAN) assay. Compounds 1-2 as numbered and identified in Table 1 below were tested.

Row | Structure (SMILES) | RNS levels (Time 0 h, in µM) | RNS levels (Time 1 h, in µM) | RNS levels (Time 3 h, in µM) | RNS levels (Time 6 h, in µM) | RNS levels (Time 24 h, in µM) | RNS levels (result in words) (Compounds 1-2 compared) | RNS levels (Time 0 h) | RNS levels (Time 1 h) | RNS levels (Time 3 h) | RNS levels (Time 6 h)
1 | CCCCc1nc(Cl)c(COC(=O)CCCO[N+](=O)[O-])n1Cc1ccc(-c2ccccc2-c2nnn[nH]2)cc1 [Compound 1, reference compound] | 0.7 ± 0.12 | 1.1 ± 0.22 | 1.1 ± 0.26 | 1.1 ± 0.34 | 1.7 ± 0.15 | – | – | – | – | –
2 | CCCCc1nc(Cl)c(COC(=O)CCC[C@@H](CO[N+](=O)[O-])O[N+](=O)[O-])n1Cc1ccc(-c2ccccc2-c2nnn[nH]2)cc1 [Compound 2] | – | – | – | – | 0.5 ± 0.26 | improved RNS levels | 0.6 ± 0.11 | 9.8 ± 3.8 | 3.1 ± 2.48 | 2.1 ± 1.65

Source: patent publication US7834042B2, “Angiotensin II receptor antagonists” (Merck Sharp & Dohme Corp., priority 2006, dated 2010)
